Legend:
[1] = tested on: bone specific alkaline phosphatase; settings: Groups 2-4, i.v., 56 days stall rest; also reduced in placebo
Description: (§1) Bone metabolism is monitored using standard techniques, i.e. serum assays to determine levels of markers of bone turnover, bone resorption and bone formation and ultrasound is used to assess changes in bone density.
(§2) Materials and Methods: Sixteen healthy adult thoroughbred horses (eight mares and eight male castrates) which had previously been running at pasture for at least 4 months are used.
(§3) The horses are randomly allocated to 4 treatment groups of four horses, each containing two mares and two male castrates. Serum samples are collected and ultrasound measurements are taken on three occasions directly before commencement of stall rest. Assays are conducted on the serum samples to determine pre-confinement levels of C-telopeptides (C-Tx; a collagen breakdown product that is a marker of bone resorption); osteocalcin (a marker of bone turnover) and bone specific alkaline phosphatase (a marker of bone formation). Ultrasound is used to measure the speed of transmission of sound waves through the bone.
(§4) Stall rest is commenced the day of first treatment. Serum samples are taken twice weekly and ultrasound measurements are taken each 14 days for the 56 days of the study to monitor changes in bone metabolism markers and in bone density relative to pre-confinement values. At the end of the study the horses are returned to the pasture.

C-telopeptides (C-Tx) = settings: alendronate injection, horses confined to stall rest for 56 days, versus saline
Description: as §1, §2, §3, §4

How did the “marker for bone formation (bone specific alkaline phosphatase)” value [1] turn out when `NCCCC(O)(P(=O)(O)O)P(=O)(O)O` [alendronate, 4-amino-1-hydroxybutylidene-1,1-bisphosphonic acid monosodium trihydrate] was run?
Its value is “reduced”.

What about the “bone resorption (result in words)” value (C-telopeptides (C-Tx)) of the same molecule?
Its value is “suppressed bone resorption”.
